Test results: patent US4558033A, “Potentiation of the effects of insulin by peptides” (Amgen, priority 1983, dated 1985)
No end group written: not given here.

Tests used:
[1] = system: mice ob/ob, ob/+, db/db, db/m; assay: Plasma glucose after glucose load, fixed insulin and DP doses, normal and genetically abnormal mice (Example 4); type: in vivo; settings: for Plasma Glucose at 60 min: i.p. glucose, insulin 0.001 mU/10g
Experimental: (§1) A study was conducted to ascertain the effects of fixed amounts of deletion peptide and insulin on various animal models, including rats and normal and genetically abnormal mice.
(§2) Animals in test groups of five each were employed in these procedures. Sprague-Dawley rats weighed approximately 200 grams; homozygous genetically abnormal mice (ob/ob and db/db) had weights in the range of 40 to 60 grams; and heterozygous normal mice (ob/+ and db/m) all weighed approximately 25 grams. Glucose was administered intraperitoneally at a dosage of 0.05 ml/10g of a solution containing 135 mg/ml glucose, except for one group of rats which were given an oral dose of glucose comprising 1 ml of 270 mg/ml glucose solution. Insulin was administered at a dose of 0.001 mU/10g and deletion peptide was simultaneously intraperitoneally administered at a dose of 5.0 μg/10g.
(§3) The results of plasma glucose determinations performed on blood drawn one hour after administration of test materials are set out in Table III, below.

Rhesus monkeys = assay: Induced hyperglycemia in Rhesus monkeys, plasma glucose over two hours (Example 6); type: in vivo
Experimental: A study was conducted to determine the effects of deletion peptide on induced hyperglycemia in Rhesus monkeys. Blood samples were taken from normal female monkeys (in three experimental groups of three) five minutes before administration of an oral dose of 3.0 ml/kg of 0.5 g/ml glucose and intramuscular administration of either: (1) 0.5 ml/kg phosphate buffered saline (PBS), pH 7.4; (2) deletion peptide 0.1 ml/kg of 1.0 mg/ml solution in PBS; (3) deletion peptide as above combined with 0.5 ml/kg of 20 mU/ml insulin in PBS; or (4) insulin alone as above. Blood samples were then periodically withdrawn over two hours and analyzed for plasma glucose levels. Plasma glucose level data is set out in Table IV.

normal rats [2] = settings: cited from earlier work
normal rats [3] = assay: In vivo glucose metabolism in normal rats
From the text: (§4) The present invention has its origins, in part, in the results of an extensive series of controlled experiments designed to study the effects of deletion peptide: (a) on in vivo glucose metabolism in normal rats; (b) on in vivo insulin-stimulated glucose uptake by normal rat liver and skeletal muscle tissue; (c) on growth of hypophysectomized rats; and (d) on in vitro glucose utilization of adipocytes isolated from normal rats.

[4] = Ongoing studies of deletion peptide biological activities in in vivo systems; settings: preliminary evidence
From the text: The above examples establish that deletion peptide alone has no immediate and direct hypoglyamic effect within the protocols of investigations conducted to date. […] Further, certain of these effects appear to be shared by peptides disclosed and claimed in co-owned, co-pending, concurrently-filed U.S. Patent application Ser. No. 501,024, by the inventor herein and co-inventor Theodore Jones, entitled "Biologically Active Peptides Structurally Related to Regions Within Growth Hormones," the disclosures of which are incorporated by reference herein.

[5] = system: insulin-stimulated fat cells of older obese rats; settings: in vitro; cited from earlier work
[6] = system: GT-impaired strain of mice (YS/Wf Nctr); settings: cited from earlier work
[7] = system: rats given an intraperitoneal glucose load; assay: Plasma glucose in rats given an intraperitoneal glucose load, DP with and without insulin (Example 2); type: in vivo, Sprague-Dawley rats; settings: for Plasma Glucose at 60 minutes: i.p. glucose load
Experimental: (§5) A study was conducted to determine the effect on plasma glucose of deletion peptide, with and without insulin, in rats given an intraperitoneal glucose load. Groups of five male Sprague-Dawley rats were involved in this study. All weighed between 160 to 168 grams and were maintained on standard laboratory diet until 18 hours prior to the test procedures. Test groups of fasted rats received, in rapid succession, 1.0 ml of 0.75 M glucose, 10 mU of insulin in admixture with 1% bovine serum albumin (BSA) in normal saline (pH 7.4), and either 0, 25, 50 or 100 μg doses of deletion peptide. Control groups of rats received glucose and 1% BSA in saline with no insulin but with similarly varying levels of deletion peptide. Plasma glucose determinations were made on blood drawn one hour after administration of test substances and the results (means, ± standard errors) of these determinations are set out in Table I below.

normal dog = settings: portal infusion 1 μg/kg/min
Experimental: Two studies were conducted to determine the effects of deletion peptide on dogs.

[8] = system: normal rat liver and skeletal muscle tissue; assay: In vivo insulin-stimulated glucose uptake by normal rat liver and skeletal muscle tissue; settings: administration in combination with insulin
From the text: as §4

[9] = system: rats given an intraperitoneal glucose load; assay: Plasma glucose in rats given an intraperitoneal glucose load, increasing insulin doses with and without 100 μg DP (Example 3); type: in vivo; settings: for Plasma Glucose at 60 minutes: i.p. glucose load
Experimental: as §5
A study was conducted under the same general procedures as Example 2 to determine the effect of increasing doses of insulin, with and without 100 μg of deletion peptide, on rats given an intraperitoneal glucose load. The results of plasma glucose determinations on blood drawn after 60 minutes are set out below in Table II.

hypophysectomized rats = assay: Growth of hypophysectomized rats; type: in vivo
From the text: as §4

[10] = system: adipocytes isolated from normal rats; assay: In vitro glucose utilization of adipocytes isolated from normal rats; type: cell-based
From the text: as §4

[11] = cited from earlier work
[12] = after hGH administration; cited from earlier work
[13] = system: dog, hyperglycemia induced by infusing glucose; assay: Portal infusion of deletion peptide in dog during induced hyperglycemia with fixed insulin levels (Example 5, second study); type: in vivo; settings: basal insulin alone, glucose >200 mg/deciliter
Experimental: In the second study, deletion peptide was infused portally at a rate of 1 μg/kg/min during hyperglycemia induced by infusing glucose through a peripheral catheter (to maintain glucose levels in excess of 200 mg/deciliter). Basal glucagon levels were fixed and insulin levels were fixed either at basal or four-fold basal levels.

Sprague-Dawley rats = assay: Plasma glucose after glucose load, fixed insulin and DP doses, rats (Example 4); type: in vivo; settings: Rat (normal), insulin 0.001 mU/10g
Experimental: as §1, §2, §3

fat cells = settings: compared with the 32-46 peptide findings; cited from earlier work
normal rats [14] = settings: cited from earlier work; remark: listed apart in the source
rabbits = settings: cited from earlier work

In the case of “EEAYIPKEQKYSFLQ [DP, NH2 -Glu-Glu-Ala-Tyr-Ile-Pro-Lys-Glu-Gln-Lys-Tyr-Ser-Phe-Leu-Gln-COOH]”, the “potentiation of the hypoglycemic activity of insulin” value ([1]; all animals tested in Example 4 (mice and rats)) is listed as “potentiated the hypoglycemic activity of insulin”, the “potentiation of insulin effects” value (Rhesus monkeys; at all post-injection times) is listed as “potentiated insulin effects” and the “late increases in free fatty acids and glycemic effects” value (normal rats [2]) is listed as “did not show either the late increases in free fatty acids nor the glycemic effects”. The hepatic glycogen synthesis (normal rats [3]; administered alone) was “small, insulin-like effects in increasing hepatic glycogen synthesis”, the “effects of exogenous insulin” value (normal rats [3]; concurrently administered with exogenous insulin) was “substantially augmented the effects of exogenous insulin” and the hypoglycemic effect (normal rats [3]; deletion peptide alone, normal rats) was “no hypoglycemic effect”. The “biological activities in in vivo systems” value [4] was “preliminary evidence of insulin secretory stimulation effects, effects on levels of free fatty acids, and effects on glucose uptake by hepatic and muscle tissue”, the “glucose utilization of insulin-stimulated fat cells” value [5] was “in vitro increase in glucose utilization” and the glucose tolerance [6] was “unspecified degree of improvement in glucose tolerance”. The “Plasma Glucose at 60 minutes” value ([7]; DP 25 μg per rat with 10 mU insulin in 1.0% BSA in saline) was 7.5 ± 0.1 mmol/L, the “Plasma Glucose at 60 minutes” value ([7]; DP 25 μg per rat, 1.0% BSA in saline, no insulin, fasted rats) was 8.1 ± 0.2 mmol/L and the “Plasma Glucose at 60 minutes” value ([7]; DP 50 μg per rat with 10 mU insulin in 1.0% BSA in saline) was 5.7 ± 0.3 mmol/L. The “Plasma Glucose at 60 minutes” value ([7]; DP 50 μg per rat, 1.0% BSA in saline, no insulin, fasted rats) was 7.7 ± 0.2 mmol/L, the “Plasma Glucose at 60 minutes” value ([7]; DP 100 μg per rat with 10 mU insulin in 1.0% BSA in saline) was 3.5 ± 0.1 mmol/L and the “Plasma Glucose at 60 minutes” value ([7]; DP 100 μg per rat, 1.0% BSA in saline, no insulin, fasted rats) was 8.0 ± 0.4 mmol/L. For the same substance, the effect on glycemia ([7]; deletion peptide alone, up to 100 μg/rat) was “without effect on glycemia”, the hypoglycemic effects ([7]; increasing doses of deletion peptide with 10 mU insulin) was “progressively greater degrees of hypoglycemic effects” and the “effect on plasma glucose” value ([7]; lowest dose of deletion peptide given with a low dose of insulin in BSA) was “small significant decrease in plasma glucose”. For the same substance, the “plasma and hepatic glucose output” value (normal dog) was “minor transient fall”, the glycemic effects (normal dog; over a period of two hours) was “no glycemic effects” and the “incorporation of labelled glucose into liver and skeletal muscle tissue” value [8] was “caused an alteration in the incorporation of labelled glucose”. For the same substance, the “Plasma Glucose at 60 minutes” value ([9]; 100 μg DP in 1.0% BSA in saline, 0 mU insulin) was 8.1 ± 0.2 mmol/L, the “Plasma Glucose at 60 minutes” value ([9]; 100 μg DP with insulin 7 mU per rat) was 7.6 ± 0.1 mmol/L and the “Plasma Glucose at 60 minutes” value ([9]; 100 μg DP with insulin 10 mU per rat) was 3.5 ± 0.1 mmol/L. The “Plasma Glucose at 60 minutes” value ([9]; 100 μg DP with insulin 20 mU per rat) was 3.1 ± 0.1 mmol/L, the “Plasma Glucose at 60 minutes” value ([9]; 100 μg DP with insulin 40 mU per rat) was 2.7 ± 0.1 mmol/L and the hypoglycemia ([9]; deletion peptide in addition to 10 mU insulin) was “significant degree of hypoglycemia”. For the same substance, the “potentiation of hypoglycemic effects of insulin” value ([9]; higher doses of insulin with 100 μg deletion peptide) was “potentiated”, the growth stimulating effect (hypophysectomized rats) was “no growth stimulating effect” and the “insulin-stimulated glucose uptake by isolated adipocytes” value [10] was “no effect on insulin-stimulated glucose uptake”.
In the case of “hGH positions 1 through 15: fragment duplicating the sequence of amino acid residues at hGH positions 1 through 15 (FPTIPLSRLFDNAML; UniProt P01241 27-41, looked up, fragment)”, the “effect on glucose uptake” value ([11]; hGH amino terminal fragment) is listed as “insulin potentiating effect on glucose uptake”.
In the case of human growth hormone [hGH], the “blood levels of glucose” value [12] is given as “initially raise and then lower blood levels of glucose” and the free fatty acids [12] is given as “lower free fatty acids within one hour of administration, followed by later increasing circulating fatty acids”.
In the case of insulin, the Plasma Glucose at 60 min ([1]; Mouse db/db) is reported as 198 ± 31 mg/dL, the Plasma Glucose at 60 min ([1]; Mouse db/m (normal)) is reported as 102 ± 10 mg/dL and the Plasma Glucose at 60 min ([1]; Mouse ob/+ (normal)) is reported as 99.5 ± 6 mg/dL. It also gave a Plasma Glucose at 60 min ([1]; Mouse ob/ob) of 167 ± 26 mg/dL, a Plasma Glucose (Rhesus monkeys; +5 min., oral glucose + i.m. insulin 0.5 ml/kg of 20 mU/ml) of 79 ± 9 mg/dL and a Plasma Glucose (Rhesus monkeys; +15 min., oral glucose + i.m. insulin) of 72 ± 10 mg/dL. For the same substance, the Plasma Glucose (Rhesus monkeys; +30 min., oral glucose + i.m. insulin) was 85 ± 11 mg/dL, the Plasma Glucose (Rhesus monkeys; +45 min., oral glucose + i.m. insulin) was 88 ± 13 mg/dL and the Plasma Glucose (Rhesus monkeys; +60 min., oral glucose + i.m. insulin) was 109 ± 14 mg/dL. For the same substance, the Plasma Glucose (Rhesus monkeys; +120 min., oral glucose + i.m. insulin) was 108 ± 14 mg/dL, the Plasma Glucose (Rhesus monkeys; -5 min. (before administration), oral glucose + i.m. insulin group) was 71 ± 3 mg/dL and the hepatic glucose output [13] was “only reduced hepatic glucose output”. The “Plasma Glucose at 60 minutes” value ([7]; 10 mU insulin in 1.0% BSA in saline, 0 μg DP, fasted rats) was 8.1 ± 0.2 mmol/L, the effect on glycemia ([7]; low dose of insulin in BSA alone (10 mU, 0 DP)) was “without effect on glycemia” and the “effect on plasma glucose” value ([9]; higher doses of insulin (20, 40 mU)) was “corresponding decreases in plasma glucose”. For the same substance, the “Plasma Glucose at 60 minutes” value ([9]; insulin 7 mU per rat, 1.0% BSA in saline, no DP) was 8.0 ± 0.3 mmol/L, the “change in glycemia compared with the control group” value ([9]; insulin 7.0 mU/rat, whether or not deletion peptide was concurrently administered) was “no change in glycemia” and the “Plasma Glucose at 60 minutes” value ([9]; insulin 10 mU per rat, 1.0% BSA in saline, no DP) was 8.1 ± 0.2 mmol/L. For the same substance, the “Plasma Glucose at 60 minutes” value ([9]; insulin 20 mU per rat, 1.0% BSA in saline, no DP) was 7.0 ± 0.1 mmol/L, the “Plasma Glucose at 60 minutes” value ([9]; insulin 40 mU per rat, 1.0% BSA in saline, no DP) was 5.2 ± 0.3 mmol/L and the “effect on plasma glucose concentration” value ([9]; insulin alone, 10 mU) was “without effect on plasma glucose concentration”. For the same substance, the Plasma Glucose at 60 min (Sprague-Dawley rats; glucose administered orally) was 144 ± 12 mg/dL and the Plasma Glucose at 60 min (Sprague-Dawley rats; i.p. glucose) was 121 ± 28 mg/dL.
For “peptide duplicating residues 176 through 191: peptide duplicating hGH residues 176 through 191 (FLRIVQCRSVEGSCGF; UniProt P01241 202-217, looked up, fragment)”, the glycemic effect ([11]; hGH carboxy terminal fragment) is listed as “hyperglycemic effect”.
In the case of “tetradecapeptide: synthetic tetradecapeptide copying hGH residues at positions 31 through 44 (FEEAYIPKEQKYSF; UniProt P01241 57-70, looked up, fragment)”, the “in vitro effects on fat cells” value (fat cells) is listed as “substantially the same in vitro effects on fat cells”, the “in vivo hypoglycemic effect” value (normal rats [14]) is listed as “absence of any in vivo hypoglycemic effect” and the “in vivo hypoglycemic effect” value (rabbits) is listed as “absence of any in vivo hypoglycemic effect”.
